Measurements reported in PubChem BioAssay (NCI).
Where “and” joins values, the source holds several entries; their conditions need not be identical. Identical values can stand only once.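 96-well plates; 48 h exposure; 5 concentrations. Endpoints by linear interpolation between flanking doses. Not reached: highest tested concentration assigned. At the GI50, growth is halved. Definition used: TGI = concentration required for complete inhibition of growth.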

Tests used:
Experiment in all cases: growth of human tumour cells (NCI), 48 h
[1] = system: A498 renal
[2] = system: A549 NSCLC
[3] = system: HCT-15 colon
[4] = system: HL-60(TB) leukemia
[5] = system: M14 melanoma
[6] = system: OVCAR-8 ovarian
[7] = system: RXF 393 renal
[8] = system: SN12C renal
[9] = system: SNB-19 CNS
[10] = system: SW-620 colon

## Nc1nccc(C#Cc2cncnc2Nc2ccc(OCc3cccc(F)c3)c(Cl)c2)n1
[1]
  GI50: 5.05 µM
  TGI: > 14.3 µM
[2]
  GI50: 5.99 µM
  TGI: > 15.6 µM
[3]
  GI50: 3.69 µM
  TGI: 11.4 µM
[4]
  GI50: 5.7 µM
  TGI: 14.5 µM
[5]
  GI50: 4.51 µM
  TGI: 9.43 µM
[6]
  GI50: 4.94 µM
  TGI: 24.8 µM
[7]
  GI50: 4.02 µM
  TGI: 8.9 µM
[8]
  GI50: 3.22 µM
  TGI: 9.98 µM
[9]
  GI50: 4.79 µM
  TGI: 10 µM
[10]
  GI50: 3 µM
  TGI: 7.66 µM

## O=C1c2cccnc2-c2nc(-c3ccccc3)cc3c2c1nc1ccccc13
[1]
  GI50: 17.1 µM
  TGI: 31.2 µM
[2]
  GI50: 6.97 µM
  TGI: 21 µM
[3]
  GI50: 1.13 µM
  TGI: 5.02 µM
[4]
  GI50: 1.12 µM
  TGI: 3.01 µM
[5]
  GI50: 3.57 µM
  TGI: 15.7 µM
[6]
  GI50: 3.06 µM
  TGI: > 63.1 µM
[7]
  GI50: 16 µM
  TGI: 32.3 µM
[8]
  GI50: 7.14 µM
  TGI: 21.1 µM
[9]
  GI50: 3.71 µM
  TGI: 20.1 µM
[10]
  GI50: 2.56 µM
  TGI: > 35.2 µM

## C[C@@H](Oc1cc(-n2cnc3ccc(OCC4CCN(C)CC4)cc32)sc1C(N)=O)c1ccccc1C(F)(F)F
[1]
  GI50: 0.295 µM
  TGI: 1.56 µM
[2]
  GI50: 0.131 µM
  TGI: 2.7 µM
[3]
  GI50: 0.126 µM
  TGI: 3.2 µM
[4]
  GI50: 0.0708 µM
  TGI: 1.08 µM
[5]
  GI50: 0.0879 µM
  TGI: 1.25 µM
[6]
  GI50: 0.0896 µM
  TGI: 2.85 µM
[7]
  GI50: 0.0879 µM
  TGI: 3.32 µM
[8]
  GI50: 0.319 µM
  TGI: 4.28 µM
[9]
  GI50: 0.163 µM
  TGI: 4.56 µM
[10]
  GI50: 0.0648 µM
  TGI: 3.5 µM

## O=C(O)Cc1ccccc1
[1]
  GI50: > 1000 µM
  TGI: > 1000 µM and 1700 µM
[2]
  GI50: > 1000 µM
  TGI: > 2000 µM
[3]
  GI50: > 1000 µM
  TGI: > 1000 µM and 1710 µM
[4]
  GI50: > 1000 µM
  TGI: > 1000 µM
[5]
  GI50: > 1000 µM
  TGI: > 2000 µM
[6]
  GI50: > 1000 µM
  TGI: > 2000 µM
[7]
  GI50: > 1000 µM
  TGI: > 1000 µM and 1940 µM
[8]
  GI50: > 1000 µM
  TGI: > 2000 µM
[9]
  GI50: > 1000 µM
  TGI: > 2000 µM
[10]
  GI50: > 1000 µM
  TGI: > 2000 µM

## O=C1/C(=C\c2ccccc2)CN(C(=O)c2ccccc2F)C/C1=C\c1ccccc1
[1]
  GI50: 2.63 µM
  TGI: 13.2 µM
[2]
  GI50: 3.2 µM
  TGI: 12 µM
[3]
  GI50: 1.88 µM
  TGI: 4.11 µM
[4]
  GI50: 2.78 µM
  TGI: 7.36 µM
[5]
  GI50: 2.51 µM
  TGI: 7.12 µM
[6]
  GI50: 2.67 µM
  TGI: 7.9 µM
[7]
  GI50: 1.8 µM
  TGI: 3.41 µM
[8]
  GI50: 1.77 µM
  TGI: 3.48 µM
[9]
  GI50: 1.85 µM
  TGI: 4.15 µM
[10]
  GI50: 1.52 µM
  TGI: 3.48 µM

## COC(=O)Oc1nn(C(=O)OC)c(=O)c2ccccc12 (tested in a mixture with another compound)
[1]
  TGI: 99.4 µM
[2]
  TGI: > 100 µM
[3]
  TGI: > 100 µM
[4]
  TGI: > 100 µM
[5]
  TGI: > 100 µM
[6]
  TGI: > 100 µM
[7]
  TGI: > 100 µM
[8]
  TGI: > 100 µM
[9]
  TGI: > 100 µM
[10]
  TGI: > 100 µM

## CCOC(=O)/C(=C/c1c(-c2ccccc2)[nH]c2ccccc12)C(=O)c1ccc(Cl)cc1
[1]
  GI50: 8.81 µM
  TGI: > 100 µM
[2]
  GI50: 4.61 µM
  TGI: > 100 µM
[3]
  GI50: 4.06 µM
  TGI: > 100 µM
[4]
  GI50: 1.99 µM
  TGI: 7.59 µM
[5]
  GI50: 3.07 µM
  TGI: > 100 µM
[6]
  GI50: 5.75 µM
  TGI: > 100 µM
[7]
  GI50: 17.4 µM
  TGI: > 100 µM
[8]
  GI50: 3.35 µM
  TGI: > 100 µM
[9]
  GI50: 7.96 µM
  TGI: > 100 µM
[10]
  GI50: 4.53 µM
  TGI: > 100 µM

## Cc1ccc2c(c1)/C(=N\N=C/c1cn(C(C)C)c3ccccc13)C(=O)N2
[1]
  GI50: 1.6 µM
  TGI: > 100 µM
[2]
  GI50: 5.66 µM
  TGI: > 100 µM
[3]
  GI50: 2.12 µM
  TGI: > 100 µM
[4]
  GI50: 1.95 µM
  TGI: 6.17 µM
[5]
  GI50: 3.95 µM
  TGI: > 100 µM
[6]
  GI50: 4.7 µM
  TGI: > 100 µM
[7]
  GI50: 4.31 µM
  TGI: > 100 µM
[8]
  GI50: 4.47 µM
  TGI: > 100 µM
[9]
  GI50: 7.18 µM
  TGI: > 100 µM
[10]
  GI50: 0.937 µM
  TGI: > 100 µM

## C/C(=N\NC(=S)Nc1ccccc1)c1ccccn1
[1]
  GI50: 0.207 µM
  TGI: 1.64 µM
[2]
  GI50: 0.263 µM
  TGI: 2.9 µM
[3]
  GI50: 0.0338 µM
  TGI: 13.2 µM
[4]
  GI50: < 0.0114 µM
  TGI: 0.0781 µM
[5]
  GI50: 0.0624 µM
  TGI: 2.17 µM
[6]
  GI50: < 0.0169 µM
  TGI: 2.54 µM
[7]
  GI50: 0.588 µM
  TGI: 2.64 µM
[8]
  GI50: 0.355 µM
  TGI: 9.64 µM
[9]
  GI50: 1.1 µM
  TGI: 16.4 µM
[10]
  GI50: 0.0242 µM
  TGI: 2.94 µM

## Nc1cc2c3c(cccc3c1)C(=O)N(CCN1CCN(CCN3C(=O)c4cccc5cc(N)cc(c45)C3=O)CC1)C2=O
[1]
  TGI: > 100 µM
[2]
  TGI: > 100 µM
[3]
  TGI: > 100 µM
[4]
  TGI: > 100 µM
[5]
  TGI: > 100 µM
[6]
  TGI: > 100 µM
[7]
  TGI: > 100 µM
[8]
  TGI: > 100 µM
[9]
  TGI: > 100 µM
[10]
  TGI: > 100 µM

## NCCCNCCCNc1nc2ccccc2c2[nH]c3ccccc3c12
[1]
  GI50: 0.995 µM
  TGI: 2.44 µM
[2]
  GI50: 0.0509 µM
  TGI: 4.05 µM
[3]
  GI50: 0.307 µM
  TGI: 4.95 µM
[4]
  GI50: 0.0375 µM
  TGI: 1.3 µM
[5]
  GI50: 0.672 µM
  TGI: 2.35 µM
[6]
  GI50: 0.0346 µM
  TGI: 4.3 µM
[7]
  GI50: 0.313 µM
  TGI: 2.13 µM
[8]
  GI50: 0.0224 µM
  TGI: 1.28 µM
[9]
  GI50: 0.0785 µM
  TGI: 1.42 µM
[10]
  GI50: 0.19 µM
  TGI: 1.64 µM
